Measured values reported in a melting point compilation (Tetko et al.; mined from patent text by program, amines drawn as free bases though some values may be those of a salt).

Compound	melting point
CN1Cc2c(/C=C\Cl)ncn2-c2cccc(Cl)c2C1=O	205 to 207 °C
CC(Nc1nc(-c2ccc([N+](=O)[O-])cc2)nc2[nH]ccc12)c1ccccc1 (stereo not given)	> 250 °C
COc1cc(C=O)c(F)cc1Cl	120 to 122 °C
COc1ccc(C(=O)O)c2c1OCCCO2	186 °C
Cc1nc(C(F)(F)F)ccc1C(=O)C1=C(Sc2ccccc2)CCCC1=O	124 to 125 °C
Cc1cc(C)c(C(=O)P2(=O)Oc3ccccc3-c3ccccc32)c(C)c1 (stereo not given)	109 °C
COc1cc(C=C2NC(=O)N(C)C2=O)ccc1O	227 to 228 °C
C#CC(=O)N1CCN(C(=O)OC2C3=C(OCCS3)C(=O)N2c2ccc3ccc(Cl)nc3n2)CC1 (stereo not given)	302 °C
Cc1cc(C(=O)c2[nH]c(=O)[nH]c(=O)c2C(C)C)cc([N+](=O)[O-])c1	124 to 125 °C
CCc1cc(C(=O)Nc2c(C)cccc2C)no1	82 °C
CCCCCc1ccc(NC2=NCCS2)cc1	77 to 78 °C
CCCCOC(=O)N[C@H]1C(=O)N[C@H]1CO (relative stereo)	128 to 131 °C
Cc1ccc2c(c1)C(=O)C(=O)N2CCCN(C(C)C)C(C)C	87 to 89 °C
CC(C)(C)C(=O)c1c[nH]c2ncc(N3CCc4ccccc4C3=O)nc12	113 to 115 °C
Clc1cccc(Nc2nc3nonc3nc2Nc2cccc(Cl)c2)c1	238 °C
COc1ccc(C(c2ccc(OC)c(O)c2)n2cncn2)cc1O	218 to 219 °C
O=[N+]([O-])c1ccc(-c2cc3c(Cl)ncnc3[nH]2)cc1	> 280 °C
CC=CC(=O)C1=C(C)C(=O)CCC1(C)C	68 to 69 °C
CNS(=O)(=O)c1cc(C(=O)O)cc(N2CCCC2)c1Oc1ccccc1	245 to 248 °C
CCCCCCCCN1CCN(O)C1=O	53.5 to 55.5 °C
COC(=O)CCc1ccc(Nc2ccccc2[N+](=O)[O-])cc1	68 to 70 °C
CC(=O)Oc1cccc(C(=O)NCCO[N+](=O)[O-])c1	89 to 91 °C
COc1cc(N2CCC(N3CCN(C)CC3)CC2)ccc1Nc1ncc2ccc(-c3ccc(Cl)nc3)n2n1	186 to 188 °C
COc1cc2c(cc1OC)CN(CCc1ccc(N)cc1)CC2	120 °C
O=C(O)[C@H]1C[C@H](NC(=O)N(c2ccccc2)c2ccccc2)c2c(Cl)cc(Cl)cc2N1 (relative stereo)	214 to 216 °C

Compound	melting point
CN(Cc1ccccc1)C(=O)Nc1ccc(CN2C(=O)C3CCCC3N(C(=O)CN3C(=O)c4ccccc4C3=O)c3ccccc32)cc1 (stereo not given)	156 to 158 °C
Cc1cccc2c1C(=O)C(CO)(CO)CS2	138 to 142 °C
O=C1NC(c2ccccc2)(c2ccccc2)C(=O)N1COCc1ccccc1	151 to 152 °C
COc1ncccc1NC(=NC#N)NC(NC(=O)c1ccc(Cl)cc1)C(C)(Cl)Cl (stereo not given)	155 to 156 °C
Cc1cc(F)ccc1-c1nc(NC(C)(C)CO)nc2c1ccc(=O)n2-c1ccccc1F	106 to 112 °C
CNCCOc1ccc2ccc(NC(=O)c3ccc(OC)cc3)nc2n1	146 °C
FC(F)(F)c1nc2cnc3ccccc3c2s1	113 to 114 °C
CCNC(=O)c1ccc(-n2nnc(C(=O)NC3CC3)c2CSC)cc1	192 °C
Oc1ccc(Cl)cc1C(O)(C1CCCCC1)C1CCCCC1	230 °C
Cc1c(N2CC[C@@H](C3(N)CC3)C2)ccc2c(=O)c(C(=O)O)cn(C3CC3)c12	230 to 233 °C
Cc1cccc(NC(=S)SCC(=O)C(C)(C)C)n1	80 °C
CC(=O)NS(=O)(=O)c1ccc(C2=C(c3cccc(F)c3)C(=O)C(C)(C)O2)cc1	178 to 179 °C
Nc1cccc2c(=O)[nH]ccc12	258 to 259 °C
COc1ccc(N2CCN(C3CN(C4c5c(C)cc(C)c(C)c5OC4(C)C)CCN3c3ccccc3)CC2)cc1 (stereo not given)	144 to 145 °C
CCN(CC)c1nc2ccnn2c2ncccc12	102 °C
CCN(C)C(=O)c1nn(-c2ccc(Cl)cc2)c(=O)c2c(N)scc12	148 to 150 °C
c1csc(C2=NOCCS2)c1	86 to 89 °C
C=CCc1c(O)ccc2ccc(OCC(=O)OC)cc12	128 to 130 °C
O=C(NCCCc1ccc(CC(CCCc2ccccc2)(C(=O)OCc2ccccc2)C(=O)OCc2ccccc2)cc1)c1ccc(-c2ccccn2)cc1	118 to 120 °C
CONC(=O)c1nc(-c2ccc(Cl)c(OC)c2F)cc(N)c1Cl	215 to 217 °C
O=C1CCC(O)(c2ccc(F)c(F)c2)CC1	84 to 85 °C
CCCn1c(CCOC)nc2c(N)nc3cc(OC4CCOC4)ccc3c21 (stereo not given)	192 to 194 °C
O=C(Nc1ccc(Cl)cc1)NC1N=C(c2ccccc2F)c2ccccc2NC1=O (racemic)	278 °C
Cc1c([N+](=O)[O-])c(=O)n(-c2cc(C(=O)OC(C)C)c(Cl)cc2F)c(=O)n1C	129 to 131 °C
Cc1nccn1C(C)CC(O)(c1ccccc1)c1ccccc1 (stereo not given)	168 to 169 °C

Compound	melting point
COc1nc(NC(=O)NS(=O)(=O)Cc2ccccc2C(C)OC(C)=O)nc(OC)n1 (stereo not given)	90 to 95 °C
CCc1c(C(C)(C)C)cc(C(C)(C)C)c(O)c1C(=O)Nc1ccc(S(=O)(=O)C(F)(F)F)cc1Cl	157 to 158 °C
c1ccc(-c2ccc(CN3CCN(c4ccccc4)CC3)s2)cc1	88 °C
NC(=O)CC[C@H](NC(=O)c1ccc(OCc2ccccc2)cc1OCc1ccccc1)C(=O)N1CCN(Cc2ccccc2)CC1	133 to 135 °C
Fc1ccccc1NC(=S)c1ccccn1	94 to 97 °C
O=S(=O)(Nc1ccc(Br)cc1)C(F)(F)F	52 to 54 °C
Cn1c([N+](=O)[O-])cnc1C(N)=S	148 to 150 °C
CN1CCN(c2ccc(Cl)c(C3(C)C(=O)Nc4ccc(Cl)cc43)c2)CC1 (stereo not given)	155 °C
CCC(C)N(C)C(=O)c1cc(-c2ccccc2F)c2ccccc2n1 (stereo not given)	86 °C
Nc1ccc(NC(=O)N2CCc3cc(S(=O)(=O)N4CC(c5ccccc5)NC4=O)ccc32)cc1 (stereo not given)	158 to 160 °C
O=C(O)c1cccc2c(=O)c3cc([N+](=O)[O-])ccc3[nH]c12	375 °C
CCOC(=O)C(=O)Nc1cccc(O)c1C(N)=O	200 to 202 °C
CC(C)(C)OC(=O)/C(=C/c1ccc2ccccc2c1)C(=O)c1ccccc1O	111 to 112 °C
CCCCc1nc2ccc(C(C)O)cc2c(=O)n1Cc1ccc(-c2ccccc2-c2nnn[nH]2)cc1 (stereo not given)	146 to 147 °C
COc1ccc(CSc2nc(-c3ccccc3)n(Cc3cc4c(cc3Cl)OCO4)c2C=O)cc1	120 °C
O=C(Nc1c(C(O)(C(F)(F)F)C(F)(F)F)ccc2ccccc12)c1cc2ccccc2s1	132 to 134 °C
Cc1ccc(C)c(SCCCC(=O)O)c1	61 to 62 °C
CCCCCCCCCCCCc1c[nH]cn1	69 to 71 °C
CCOP(=O)(CN(CCCc1ccccc1)C(=O)Cc1cc(C(C)(C)C)c(O)c(C(C)(C)C)c1)OCC	134 to 136 °C
Brc1cncc2ncc(Br)n12	150 °C
Cc1nc(N2CCN(Cc3ccc(F)cc3)C2=O)sc1C(=O)NCc1ccc(C(F)F)o1	173 to 174 °C
COc1nc(C)c(C(C)=O)cc1NC(=O)N1CCN(c2cc(C)cc(C)c2)CC1	66 to 69 °C
COc1cc2[nH]c3c(c2cc1OC)CC(=CC1CCN(Cc2ccccc2)CC1)C3=O	244 to 245 °C
CC1(C)CC(=O)c2c(OC3CCC3)sc(-c3cc[nH]n3)c2C1	202 to 204 °C
COC1=C(OC)C(=O)c2c(cccc2[N+](=O)[O-])C1=O	156 to 157 °C

Compound	melting point
CC(C)(C)OC(=O)Nc1c(F)cccc1[N+](=O)[O-]	100 to 101 °C
COC(=O)Nc1cccc(OCC(O)CN(Cc2ccccc2)C(C)(C)C)c1O (stereo not given)	130 to 133 °C
CCSC1=C(c2ccc(O)cc2)C(=O)c2cc(O)ccc21	78 to 81 °C
CC(=O)c1nn(-c2c(Cl)cc(C(F)(F)F)cc2Cl)c(N)c1S(C)=O (stereo not given)	166 °C
Nn1nc(-c2ccc(Cl)cc2)cc1OCCN1CCOCC1	120 to 121 °C
O=C(O)CCC(=O)c1ccc(-c2ccc(C(F)(F)F)cc2)cc1	172 to 174 °C
O=C1CCC(c2ccccc2F)(c2ccccc2F)[C@@H]2CN(Cc3ccccc3)C[C@H]12 (racemic)	138 °C
CC[C@@H]1C(=O)N(c2ccc(C#N)c(Cl)c2)[C@@H](C)[C@H]1O	109 to 110 °C
CCCc1nc2cnc3ccccc3c2n1CCCCNS(=O)(=O)c1ccccc1	156 to 157 °C
OCc1nc2cccnc2n1Cc1ccc(-c2ccccc2)cc1	163 to 165 °C
COc1nc2cc([N+](=O)[O-])c(C)c(C(=O)Cl)c2nc1OC	162 to 164 °C
CC(C)(C)c1ccc(CN2CCNC2=O)cc1	122 to 127 °C
C=Cc1c(OC)nc(-c2ccc(Cl)c(OC)c2F)nc1C(=O)OC	107 to 108 °C
Brc1ccc2nc(-c3ccc4ccccc4c3)cn2c1	226 to 228 °C
CCOC(=O)C1=NN(c2cccc(Cl)c2)C(c2ccccc2)CC1 (stereo not given)	125 to 126 °C
c1ccc2c(c1)NC(C1CCCCC1)c1cccc3c1N2CC3 (stereo not given)	136 to 138 °C
COC(=O)c1nccnc1Oc1ccccc1C(F)(F)F	83 to 85 °C
O=[N+]([O-])c1cccc2nn(-c3ccccc3)nc12	155 to 156 °C
CCOC(=O)C(=O)CC(=O)C=Cc1ccc(O)c(OC)c1	97 to 98 °C
CC(C)c1c(Oc2ccccc2)n(COCc2ccccc2)c(=O)[nH]c1=O	118 °C
O=c1[nH]c2ccc(CCCCN3CCN(c4cccc5ccccc45)CC3)cc2o1	231 to 233 °C
CC(=O)Nc1ccc(OCCCOc2ccc(Cl)c(Cl)c2)cc1	135 to 137 °C
O=C(c1ccc(Cl)cc1)c1ccc(CBr)cc1	103 to 104 °C
Cc1nn(C2=NNN(S)C2N)c2c1CCCC2 (stereo not given)	201 to 202 °C
CC(=O)N1CCN(c2cc3c(c(NCc4ccccc4)c2F)c(=O)c(C(=O)O)cn3C2CC2)CC1C (stereo not given)	235 to 236 °C
